What was measured:
A-549 = test: Antiproliferative assay (MTT); type: cell-based; settings: Homo sapiens, A549, A-549 (lung), read-out: Antiproliferative activity IC50 ± SEM, A-549
Excerpt: (§1) The MTT test was employed for this investigation ([Hisham et al., 2022]; [El-Sherief et al., 2019]; [Ramadan et al., 2020]). Table 2 presents the four cancer cell lines’ median inhibitory concentration (IC50) and GI50 (average IC50) values.
(§2) The MTT test was employed for this investigation ([Hisham et al., 2022]; [El-Sherief et al., 2019]; [Ramadan et al., 2020]). The IC50 values were derived from dose-response tests. The reported data are derived from at least two independent studies, each comprising three replicates per concentration. See Supplementary Material A1 for more details.
(§3) (in 0.1% DMSO) were added (in 200 μL medium to yield a final concentration of 0.1% v/v) to the wells of plates. A single compound was designated with four wells followed by incubation of plates for 96h at 37°C. After incubation, medium was removed completely from the plates followed by addition of MTT (0.4 mg/mL in medium) to each well and subsequent incubation of plates for 3h. MTT (along with the medium) was removed and DMSO (150μL) was added to each well of the culture plates, followed by vertexing and subsequent measurement of absorbance (at 540 nm) using microplate reader. The data are shown as percentage inhibition of proliferation in comparison with controls containing 0.1% DMSO.
(§4) 4.2.1.2. Assay for antiproliferative effect […]
(§5) (10%) and 1 µg/mL each of aprotinin, leupeptin and pepstatin for 120 min. The purification was performed either at 4 °C or on ice. To record autophosphorylation level, EGFR kinase assay was carried out on the basis of DELFIA/Time-Resolved Fluorometry. The compounds were first
(§6) (1 picture or pasted object on this page, not shown here)

HT-29 = test: Antiproliferative assay (MTT); type: cell-based; settings: Homo sapiens, HT-29 (colon), read-out: Antiproliferative activity IC50 ± SEM, HT-29
Excerpt: as §1, §2, §3, §4, §5, §6

MCF-7 = test: Antiproliferative assay (MTT); type: cell-based; settings: Homo sapiens, MCF7, MCF-7 (breast), read-out: Antiproliferative activity IC50 ± SEM, MCF-7
Excerpt: as §1, §2, §3, §4, §5, §6

Panc-1 = test: Antiproliferative assay (MTT); type: cell-based; settings: Homo sapiens, Panc-1 (pancreatic), read-out: Antiproliferative activity IC50 ± SEM, Panc-1
Excerpt: as §1, §2, §3, §4, §5, §6

Bax = Bax activation assay; type: cell-based, human; settings: for Bax Conc: A-549 cancer cells
Description: 4.2.7. Bax activation assay
Bring all reagents, except the human Bax-α Standard, to room temperature for at least 30 minutes prior to opening. The human Bax-α Standard solution should not be left at room temperature for more than 10 minutes. All standards, controls and samples should be run in duplicate. Refer to the Assay Layout Sheet to determine the number of wells to be used and put any remaining wells with the desiccant back into the pouch and seal the ziploc. Store unused wells at 4 °C. Pipet 100 μL of Assay Buffer into the S0 (0 pg/mL standard) wells. Pipet 100 μL of Standards #1 through #6 into the appropriate wells. Pipet 100 μL of the Samples into the appropriate wells. Tap the plate gently to mix the contents. Seal the plate and incubate at room temperature on a plate shaker for 1 hour at ~500 rpm. Empty the contents of the wells and wash by adding 400 μL of wash solution to every well. Repeat the wash 4 more times for a total of 5 washes. After the final wash, empty or aspirate the wells and firmly tap the plate on a lint free paper towel to remove any remaining wash buffer.
Pipet 100 μL of yellow Antibody into each well, except the Blank. Seal the plate and incubate at room temperature on a plate shaker for 1 hour at ~500 rpm. Empty the contents of the wells and wash by adding 400 μL of wash solution to every well. Repeat the wash 4 more times for a total of 5 washes. After the final wash, empty or aspirate the wells and firmly tap the plate on a lint free paper towel to remove any remaining wash buffer. Add 100 μL of blue Conjugate to each well, except the Blank. Seal the plate and incubate at room temperature on a plate shaker for 30 minutes […]
Pipet 100 μL of Substrate Solution into each well. Incubate for 30 minutes at room temperature on a plate shaker at ~500 rpm. Pipet 100 μL Stop Solution to each well. Blank the plate reader against the Blank wells, read the optical density at 450 nm. Calculate the average net Optical Density (OD) bound for each standard and sample by subtracting the average Blank OD from the average OD for each standard and sample. Using linear graph paper, plot the Average Net OD for each standard versus Bax concentration in each standard. Approximate a straight line through the points.
The concentration of Bax in the unknowns can be determined by interpolation. […]

Bcl-2 = Bcl-2 inhibition assay; type: cell-based, human; settings: A-549 cell line
Description: 4.2.8. Bcl-2 inhibition assay
Mix all reagents thoroughly without foaming before use. Wash the microwells twice with approximately 300 μL Wash Buffer per well with thorough aspiration of microwell contents between washes. Take caution not to scratch the surface of the microwells. After the last wash, empty the wells and tap microwell strips on absorbent pad or paper towel to remove excess Wash Buffer. Use the microwell strips immediately after washing or place upside down on a wet absorbent paper for not longer than 15 minutes. […] Add 100 μL of Sample […]
Diluent in duplicate to all standard wells and to the blank wells. Prepare standard (1:2 dilution) in duplicate ranging from 32 ng/mL to 0.5 ng/mL. Add 100 μL of Sample Diluent, in duplicate, to the blank wells. Add 80 μL of Sample Diluent, in duplicate, to the sample wells. Add 20 μL of each Sample, in duplicate, to the designated wells. Add 50 μL of diluted biotin-conjugate to all wells, including the blank wells. Cover with a plate cover and incubate at room temperature, on a microplate shaker at 100 rpm if available, for 2 hours. Remove plate cover and empty the wells.
Wash microwell strips 3 times as described in step 2. Add 100 μL of diluted Streptavidin-HRP to all wells, including the blank wells. Cover with a plate cover and incubate at room temperature, on a microplate shaker at 100 rpm if available, for 1 hour. Remove plate cover and empty the wells.
Wash microwell strips 3 times as described in step 2. Proceed to the next step. Pipette 100 μl of mixed TMB Substrate Solution to all wells, including the blanks. Incubate the microwell strips at room temperature (18° to 25°C) for about 15 minutes, if available on a rotator set at 100 rpm.
Avoid direct exposure to intense light. The point, at which the substrate reaction is stopped, is often determined by the ELISA reader. Many ELISA readers record absorbance only up to 2.0
O.D. Therefore, the color development within individual microwells must be watched by the person running the assay and the substrate reaction stopped before positive wells are no longer properly detectable. Stop the enzyme reaction by quickly pipetting 100 μL of Stop Solution into each well, including the blank wells. It is important that the Stop Solution is spread quickly and uniformly throughout the microwells to completely inactivate the enzyme. Results must be read immediately after the Stop Solution is added or within one hour i f the microwell strips are stored at 2 - 8°C in the dark. Read absorbance of each microwell on a spectrophotometer using 450 nm as the primary wavelength.

[1] = Cell viability assay (MTT) on normal cells; type: cell-based; settings: human, MCF-10A normal mammary gland epithelial cells, 4 days incubation
Description: (§7) This experiment examines the impact of the newly developed compounds 9–29 on normal cell lines to assess their safety level. The vitality of the investigated compounds was assessed using the MCF-10 A cell line, a normal human mammary gland epithelial cell line. Following 4 days of incubation on MCF-10 A cells with each examined compound at a concentration of 50 μM, the vitality of the cells was assessed using the MTT test ([Mahmoud et al., 2022]; [Mekheimer et al., 2022]).
as §7, with “The viability” for “The vitality”, “of 9–29” for “of the investigated compounds”, “2022]). Refer to Supplementary Material A1 for more details. […]” for “2022]).”
4.2. Biological evaluation
4.2.1. Cytotoxic activity using MTT Assay and evaluation of IC50
MTT assay was carried out to study the effect of compounds on mammary epithelial cells (MCF-10A). The medium in which cells were propagated contained Dulbecco's modified Eagle's medium (DMEM)/ Ham's F-12 medium (1:1) supplemented with epidermal growth factor (20 ng/mL), hydrocortisone (500 ng/mL), insulin (10 μg/mL), 2 mM glutamine and 10% foetal calf serum.
as §3, with “After every 2-3 days, the cells were passaged using trypsin ethylenediamine tetra acetic acid (EDTA). The cells were seeded at a density of 10^4 cells mL-1 in flat-bottomed culture plates containing 96 wells each. After 24 h, medium was removed from the plates and the compounds in (in 0.1%” for “(in 0.1%”, “0.1% DMSO. […]” for “0.1% DMSO.”

[2] = system: four cancer cell lines (A-549, MCF-7, Panc-1, HT-29); test: Antiproliferative assay, average over four cancer cell lines; type: cell-based; settings: Homo sapiens; average of the four cancer cell lines; read-out: Average IC50 (GI50)
Excerpt: Table 2 presents the four cancer cell lines’ median inhibitory concentration (IC50) and GI50 (average IC50) values.
The IC50 values were derived from dose-response tests. The reported data are derived from at least two independent studies, each comprising three replicates per concentration. See Supplementary Material A1 for more details.

Compound	IC50 (A-549)	IC50 (HT-29)	IC50 (MCF-7)	IC50 (Panc-1)	Bax Conc (Bax)	Bax Conc (Bax; listed as staurosporine)	Bax Fold change (Bax; compared to untreated A-549 cancer cells)	Bcl-2 Conc (Bcl-2)	Bcl-2 Fold reduction (Bcl-2; versus control)	viability at 4 days, 50 µM [1]	IC50 [2]	melting point
C#Cc1cccc(Nc2ncnc3cc(OCCOC)c(OCCOC)cc23)c1 [Erlotinib, reference compound]	30 ± 3 nM	30 ± 3 nM	40 ± 3 nM	30 ± 3 nM	–	–	–	–	–	–	–	–
CN[C@@H]1C[C@H]2O[C@@](C)([C@@H]1OC)n1c3ccccc3c3c4c(c5c6ccccc6n2c5c31)C(=O)NC4 [Staurosporine, reference compound]	–	–	–	–	280 ± 5 pg/mL	280 pg/mL	35 fold	1.10 ng/mL	5 fold	–	–	–
COc1ccc(-c2cc(-c3cccc(OC)c3)nc(SCc3ccccc3)n2)cc1 [Compound 21, 2-(Benzylthio)-6-(3-methoxyphenyl)-4-(4-methoxyphenyl)pyrimidine]	83 ± 7 nM	82 ± 8 nM	86 ± 8 nM	82 ± 8 nM	–	–	–	–	–	89%	83 nM	245 to 247 °C

Source: paper PMC11576293, “New series of 4,6-diaryl pyrimidines: facile synthesis and antiproliferative activity as dual EGFR/VEGFR-2 inhibitors” (Frontiers in Chemistry, 2024)
